Like-named read-outs stand apart in the source and are kept apart here.
Assays:
CcSHMT1 [1] = molecular target: T1, CcSHMT1 (Erigeron canadensis, UniProt A0A8M0FGR5); experiment: SHMT activity by benzaldehyde production from DL-β-phenylserine; format: biochemical; conditions: competitive versus DL-β-phenylserine; CAP 0.63-44.23 μM, assayed 0.5 h after CAP addition
T1 construct: total CDS (1539 bp); homology model is a tetramer
T1 sequence (A0A8M0FGR5 1-513): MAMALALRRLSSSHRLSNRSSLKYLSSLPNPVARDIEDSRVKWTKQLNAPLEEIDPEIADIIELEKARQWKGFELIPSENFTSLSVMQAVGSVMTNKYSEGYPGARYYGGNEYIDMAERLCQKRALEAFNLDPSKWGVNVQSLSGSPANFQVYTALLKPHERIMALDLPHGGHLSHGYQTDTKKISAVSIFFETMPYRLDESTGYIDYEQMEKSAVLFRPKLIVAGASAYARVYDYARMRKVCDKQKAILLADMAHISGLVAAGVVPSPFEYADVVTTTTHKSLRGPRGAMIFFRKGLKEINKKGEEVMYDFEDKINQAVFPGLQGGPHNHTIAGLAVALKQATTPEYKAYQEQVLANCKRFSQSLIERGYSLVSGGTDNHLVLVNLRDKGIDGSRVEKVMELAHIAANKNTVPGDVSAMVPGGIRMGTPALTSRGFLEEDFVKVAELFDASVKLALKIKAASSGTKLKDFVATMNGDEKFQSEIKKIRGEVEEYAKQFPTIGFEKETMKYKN

CcSHMT1 [2] = molecular target: T2, CcSHMT1 (Erigeron canadensis, UniProt A0A8M0FGR5, S186A); experiment: microscale thermophoresis (MST); format: binding
T2 construct: total CDS (1539 bp)
T2 sequence (A0A8M0FGR5 1-513 S186A): T1 sequence (A0A8M0FGR5 1-513)

CcSHMT1 [3] = molecular target: T3, CcSHMT1 (Erigeron canadensis, UniProt A0A8M0FGR5, A187T); experiment: microscale thermophoresis (MST); format: binding
T3 construct: total CDS (1539 bp); homology model is a tetramer
T3 sequence (A0A8M0FGR5 1-513 A187T): T1 sequence (A0A8M0FGR5 1-513)

CcSHMT1 [4] = molecular target: T4, CcSHMT1 (Erigeron canadensis, UniProt A0A8M0FGR5, V188L); experiment: microscale thermophoresis (MST); format: binding
T4 construct: total CDS (1539 bp)
T4 sequence (A0A8M0FGR5 1-513 V188L): T1 sequence (A0A8M0FGR5 1-513)

CcSHMT1 [5] = molecular target: T1, CcSHMT1; experiment: microscale thermophoresis (MST); format: binding

Row | SMILES | IC50 (CcSHMT1 [1]) [µM] | Kd (CcSHMT1 [2]) [µM] | Kd (CcSHMT1 [3]) [µM] | Kd (CcSHMT1 [4]) [µM] | Kd (CcSHMT1 [5]; read-out: Kd) [µM] | Kd (CcSHMT1 [5]; negative control, bound is the highest concentration tested, not a printed Kd, read-out: no binding up to 50 μM) [µM]
1 | CCCCCCCC(=O)O [Caprylic acid] | 23.1 | 15.5 | 51.9 | 28 | 12.3 | 
2 | COc1cc(C(=O)O)ccc1O [Vanillic acid, reference compound] |  |  |  |  |  | > 50
